From publication PMC5218480 (PLoS ONE, 2017)

System: MV-4-11 cells
Test: Gene expression microarray analysis (Affymetrix PrimeView) and GSEA
Format: cell-based, human
Design: RFU PODN (11730768_x_at) / Fold change /veh PODN (11730768_x_at) / RFU LINC00158 (11744669_a_at) / Fold change /veh LINC00158 (11744669_a_at) / RFU DUSP10 (11751237_a_at) / Fold change /veh DUSP10 (11751237_a_at) / RFU ID3 (11757404_x_at) / Fold change /veh ID3 (11757404_x_at) / RFU PLEKHG5 (11737974_s_at) / Fold change /veh PLEKHG5 (11737974_s_at) / RFU LRRC4B (11730491_at) / Fold change /veh LRRC4B (11730491_at) / RFU GIMAP4 (11747438_a_at) / Fold change /veh GIMAP4 (11747438_a_at) / RFU KRT8 (11758183_x_at) / Fold change /veh KRT8 (11758183_x_at) / RFU CNN1 (11734310_a_at) / Fold change /veh CNN1 (11734310_a_at) / RFU VPS37D (11726825_at) / Fold change /veh VPS37D (11726825_at) / RFU C10orf10 (11716522_x_at) / Fold change /veh C10orf10 (11716522_x_at) / RFU KIR2DL2 /// KIR2DL4 /// KIR2DL5A /// KIR2DL5B /// KIR2DS1 /// KIR2DS2 /// KIR2DS3 /// KIR2DS4 /// KIR3DL3 /// KIR3DL3 /// KIR3DS1 (11738374_at) / Fold change /veh KIR2DL2 /// KIR2DL4 /// KIR2DL5A /// KIR2DL5B /// KIR2DS1 /// KIR2DS2 /// KIR2DS3 /// KIR2DS4 /// KIR3DL3 /// KIR3DL3 /// KIR3DS1 (11738374_at) / RFU C1QL1 (11718748_at) / Fold change /veh C1QL1 (11718748_at) / RFU TMPRSS4 (11747572_a_at) / Fold change /veh TMPRSS4 (11747572_a_at) / RFU HAMP (11756126_x_at) / Fold change /veh HAMP (11756126_x_at) / RFU RNFT2 (11725882_a_at) / Fold change /veh RNFT2 (11725882_a_at) / RFU NR4A2 (11747474_a_at) / Fold change /veh NR4A2 (11747474_a_at) / RFU ABCC12 (11746883_a_at) / Fold change /veh ABCC12 (11746883_a_at) / RFU TMEM136 (11760407_x_at) / Fold change /veh TMEM136 (11760407_x_at) / RFU CLDN22 /// WWC2 (11732394_at) / Fold change /veh CLDN22 /// WWC2 (11732394_at) / RFU HLA-DPB1 (11760878_x_at) / Fold change /veh HLA-DPB1 (11760878_x_at) / RFU SPINT1 (11716480_a_at) / Fold change /veh SPINT1 (11716480_a_at) / RFU GAP43 (11754022_s_at) / Fold change /veh GAP43 (11754022_s_at) / RFU A4GNT (11735810_at) / Fold change /veh A4GNT (11735810_at) / RFU PRB3 (11715151_x_at) / Fold change /veh PRB3 (11715151_x_at) / RFU TUBB4B (11761932_at) / Fold change /veh TUBB4B (11761932_at) / RFU CAPN14 (11732068_a_at) / Fold change /veh CAPN14 (11732068_a_at) / RFU TMCC2 (11721928_a_at) / Fold change /veh TMCC2 (11721928_a_at) / RFU IRGQ (11745062_a_at) / Fold change /veh IRGQ (11745062_a_at) / RFU FAM174B (11720279_a_at) / Fold change /veh FAM174B (11720279_a_at) / RFU TMPRSS4 (11748680_a_at) / Fold change /veh TMPRSS4 (11748680_a_at) / RFU FAM212B (11763350_a_at) / Fold change /veh FAM212B (11763350_a_at) / RFU PLEKHG5 (11743358_a_at) / Fold change /veh PLEKHG5 (11743358_a_at) / RFU ZSCAN30 (11745921_a_at) / Fold change /veh ZSCAN30 (11745921_a_at) / RFU CMKLR1 (11741424_a_at) / Fold change /veh CMKLR1 (11741424_a_at) / RFU LOC101060620 /// MAPK8IP1 (11723275_at) / Fold change /veh LOC101060620 /// MAPK8IP1 (11723275_at) / RFU SPTSSB (11747773_x_at) / Fold change /veh SPTSSB (11747773_x_at) / RFU PRSS12 (11739890_at) / Fold change /veh PRSS12 (11739890_at) / RFU BIN1 (11741810_x_at) / Fold change /veh BIN1 (11741810_x_at) / RFU WNT11 (11732464_a_at) / Fold change /veh WNT11 (11732464_a_at) / RFU C10orf10 (11716521_a_at) / Fold change /veh C10orf10 (11716521_a_at) / RFU C5orf56 (11738089_at) / Fold change /veh C5orf56 (11738089_at) / RFU CYB561 (11721691_x_at) / Fold change /veh CYB561 (11721691_x_at) / RFU ANKRD19P (11752326_a_at) / Fold change /veh ANKRD19P (11752326_a_at) / RFU OR2T12 /// OR2T33 /// OR2T8 (11738714_s_at) / Fold change /veh OR2T12 /// OR2T33 /// OR2T8 (11738714_s_at) / RFU VCAN (11748164_a_at) / Fold change /veh VCAN (11748164_a_at) / RFU JSRP1 (11732532_at) / Fold change /veh JSRP1 (11732532_at) / RFU KRTAP10-11 (11738290_x_at) / Fold change /veh KRTAP10-11 (11738290_x_at) / RFU MYO3A (11730013_a_at) / Fold change /veh MYO3A (11730013_a_at) / RFU EBF3 (11725865_a_at) / Fold change /veh EBF3 (11725865_a_at) / RFU CAMK2N1 (11719241_x_at) / Fold change /veh CAMK2N1 (11719241_x_at) / RFU C5orf56 (11738088_a_at) / Fold change /veh C5orf56 (11738088_a_at) / RFU OLFML3 (11715873_a_at) / Fold change /veh OLFML3 (11715873_a_at) / RFU LOC100653217 /// NTM (11731650_a_at) / Fold change /veh LOC100653217 /// NTM (11731650_a_at) / RFU MAPK11 (11762145_a_at) / Fold change /veh MAPK11 (11762145_a_at) / RFU FIZ1 (11724087_x_at) / Fold change /veh FIZ1 (11724087_x_at) / RFU OASL (11726364_x_at) / Fold change /veh OASL (11726364_x_at) / RFU SOX15 (11748057_x_at) / Fold change /veh SOX15 (11748057_x_at) / RFU CD79A (11719716_a_at) / Fold change /veh CD79A (11719716_a_at) / RFU HIST1H1D (11736915_at) / Fold change /veh HIST1H1D (11736915_at) / RFU CASKIN2 (11723855_a_at) / Fold change /veh CASKIN2 (11723855_a_at) / RFU LOC730098 (11760151_x_at) / Fold change /veh LOC730098 (11760151_x_at) / RFU OR4N2 (11742367_at) / Fold change /veh OR4N2 (11742367_at) / RFU PRRT2 (11749266_a_at) / Fold change /veh PRRT2 (11749266_a_at) / RFU SNX32 (11753110_a_at) / Fold change /veh SNX32 (11753110_a_at) / RFU CDHR5 (11726645_a_at) / Fold change /veh CDHR5 (11726645_a_at) / RFU RCAN1 (11760418_a_at) / Fold change /veh RCAN1 (11760418_a_at) / RFU FAM167A (11723789_a_at) / Fold change /veh FAM167A (11723789_a_at) / RFU FAM26E (11764081_at) / Fold change /veh FAM26E (11764081_at) / RFU ISYNA1 (11749810_s_at) / Fold change /veh ISYNA1 (11749810_s_at) / RFU ACY1 (11761880_at) / Fold change /veh ACY1 (11761880_at) / RFU 11764098_at / Fold change /veh 11764098_at / RFU SAMD14 (11745864_x_at) / Fold change /veh SAMD14 (11745864_x_at) / RFU NPB (11741838_a_at) / Fold change /veh NPB (11741838_a_at) / RFU TMPRSS6 (11731388_a_at) / Fold change /veh TMPRSS6 (11731388_a_at) / RFU KRTAP10-2 (11738614_at) / Fold change /veh KRTAP10-2 (11738614_at) / RFU ARHGAP8 /// PRR5-ARHGAP8 (11727945_x_at) / Fold change /veh ARHGAP8 /// PRR5-ARHGAP8 (11727945_x_at) / RFU KRTAP5-7 /// NADSYN1 (11734609_at) / Fold change /veh KRTAP5-7 /// NADSYN1 (11734609_at) / RFU RASL12 (11751679_a_at) / Fold change /veh RASL12 (11751679_a_at) / RFU CDKN2B (11736163_a_at) / Fold change /veh CDKN2B (11736163_a_at) / RFU PRF1 (11729649_at) / Fold change /veh PRF1 (11729649_at) / RFU, ZNF638 /// ZNF638-IT1 / Fold change vs veh, ZNF638 /// ZNF638-IT1 / RFU, PANK3 / Fold change vs veh, PANK3 / RFU, SH3YL1 / Fold change vs veh, SH3YL1 / RFU, ZEB2 / Fold change vs veh, ZEB2 / RFU, NRIP1 / Fold change vs veh, NRIP1 / RFU, PTTG1IP / Fold change vs veh, PTTG1IP / RFU, CAPN2 / Fold change vs veh, CAPN2 / RFU, MED14 / Fold change vs veh, MED14 / RFU, SNORA58 / Fold change vs veh, SNORA58 / RFU, C1orf63 / Fold change vs veh, C1orf63 / RFU, LRRFIP1 / Fold change vs veh, LRRFIP1 / RFU, NDUFAF7 / Fold change vs veh, NDUFAF7 / RFU, SLC12A2 / Fold change vs veh, SLC12A2 / RFU, IBTK / Fold change vs veh, IBTK / RFU, ESF1 / Fold change vs veh, ESF1 / Fold change vs veh, TMEM50B / RFU, TAOK1 / Fold change vs veh, TAOK1 / RFU, ACBD3 / Fold change vs veh, ACBD3 / RFU, TMA16 / Fold change vs veh, TMA16 / RFU, RWDD3 / Fold change vs veh, RWDD3 / RFU, BCAT1 / Fold change vs veh, BCAT1 / RFU, EDEM3 / Fold change vs veh, EDEM3 / RFU, TMEM33 / Fold change vs veh, TMEM33 / RFU, WDR75 / Fold change vs veh, WDR75 / RFU, AHCTF1 / Fold change vs veh, AHCTF1 / RFU, TFRC / Fold change vs veh, TFRC / RFU, ZDHHC17 / Fold change vs veh, ZDHHC17 / RFU, NOM1 / Fold change vs veh, NOM1 / RFU, ARL8B / Fold change vs veh, ARL8B / RFU, ZBTB11 / Fold change vs veh, ZBTB11 / RFU, TAMM41 / Fold change vs veh, TAMM41 / RFU, KIAA1704 /// LOC100996395 / Fold change vs veh, KIAA1704 /// LOC100996395 / RFU, ING1 / Fold change vs veh, ING1 / RFU, TRMT61B / Fold change vs veh, TRMT61B / RFU, FUBP3 / Fold change vs veh, FUBP3 / RFU, TP53 / Fold change vs veh, TP53 / RFU, TNKS2 / Fold change vs veh, TNKS2 / RFU, ZFP14 / Fold change vs veh, ZFP14 / RFU, ACTR2 / Fold change vs veh, ACTR2 / RFU, PPP3R1 / Fold change vs veh, PPP3R1 / RFU, PIK3R1 / Fold change vs veh, PIK3R1 / RFU, HNRNPA1 / Fold change vs veh, HNRNPA1 / RFU, RNF170 / Fold change vs veh, RNF170 / RFU, ZNF28 / Fold change vs veh, ZNF28 / RFU, RNGTT / Fold change vs veh, RNGTT / RFU, OGT / Fold change vs veh, OGT / RFU, BRD1 / Fold change vs veh, BRD1 / RFU, MARS / Fold change vs veh, MARS / RFU, ZNF655 / Fold change vs veh, ZNF655 / RFU, FAHD1 / Fold change vs veh, FAHD1 / RFU, BDP1 / Fold change vs veh, BDP1 / RFU, LRRCC1 / Fold change vs veh, LRRCC1 / RFU, ARID1A / Fold change vs veh, ARID1A / RFU, ZNF146 / Fold change vs veh, ZNF146 / RFU, ZNF330 / Fold change vs veh, ZNF330 / RFU, GPN3 / Fold change vs veh, GPN3 / RFU, C9orf123 / Fold change vs veh, C9orf123 / RFU, N4BP2L2 / Fold change vs veh, N4BP2L2 / RFU, ARFIP1 / Fold change vs veh, ARFIP1 / RFU, FAM179B / Fold change vs veh, FAM179B / RFU, BCL10 / Fold change vs veh, BCL10 / RFU, UHRF1BP1L / Fold change vs veh, UHRF1BP1L / RFU, BET1 / Fold change vs veh, BET1 / RFU, CNOT2 / Fold change vs veh, CNOT2 / RFU, ZNF268 / Fold change vs veh, ZNF268 / Fold change vs veh, ZNF507 / RFU, DGCR2 / Fold change vs veh, DGCR2 / RFU, WDSUB1 / Fold change vs veh, WDSUB1 / Fold change vs veh, HSP90B1 /// MIR3652 / RFU, ADSS / Fold change vs veh, ADSS / RFU, GK / Fold change vs veh, GK / RFU, ZNF148 / Fold change vs veh, ZNF148 / RFU, TAF9 / Fold change vs veh, TAF9 / RFU, SLC1A5 / Fold change vs veh, SLC1A5 / RFU, SLMO2 / Fold change vs veh, SLMO2 / RFU, ABCC4 / Fold change vs veh, ABCC4 / RFU, LOC101060439 /// RAP1B / Fold change vs veh, LOC101060439 /// RAP1B / RFU, RFX7 / Fold change vs veh, RFX7 / RFU, GTPBP10 / Fold change vs veh, GTPBP10 / RFU, CNEP1R1 / Fold change vs veh, CNEP1R1 / RFU, BIVM-ERCC5 /// ERCC5 / Fold change vs veh, BIVM-ERCC5 /// ERCC5 / RFU, ILF3 / Fold change vs veh, ILF3 / RFU 11762660_at / Fold change /veh 11762660_at / RFU VCAN (11757783_s_at) / Fold change /veh VCAN (11757783_s_at) / RFU DDX43 (11728927_at) / Fold change /veh DDX43 (11728927_at) / RFU KRT8 (11758188_x_at) / Fold change /veh KRT8 (11758188_x_at) / RFU NKD1 (11759106_at) / Fold change /veh NKD1 (11759106_at) / RFU SRD5A1 (11742802_a_at) / Fold change /veh SRD5A1 (11742802_a_at) / RFU TPSAB1 /// TPSB2 (11721975_s_at) / Fold change /veh TPSAB1 /// TPSB2 (11721975_s_at) / RFU GSTM3 (11746129_a_at) / Fold change /veh GSTM3 (11746129_a_at) / RFU IL23R (11737362_x_at) / Fold change /veh IL23R (11737362_x_at) / RFU TMEM51 (11727254_a_at) / Fold change /veh TMEM51 (11727254_a_at) / RFU PIWIL2 (11732686_x_at) / Fold change /veh PIWIL2 (11732686_x_at) / RFU ORM1 (11744905_x_at) / Fold change /veh ORM1 (11744905_x_at) / RFU CCDC152 (11743942_at) / Fold change /veh CCDC152 (11743942_at) / RFU ECM1 (11717891_a_at) / Fold change /veh ECM1 (11717891_a_at) / RFU IL23R (11748794_a_at) / Fold change /veh IL23R (11748794_a_at) / RFU TNFAIP8L3 (11732012_x_at) / Fold change /veh TNFAIP8L3 (11732012_x_at) / RFU MBOAT4 (11741988_at) / Fold change /veh MBOAT4 (11741988_at) / RFU 11764193_at / Fold change /veh 11764193_at / RFU TMEM53 (11763286_at) / Fold change /veh TMEM53 (11763286_at) / RFU MAGEB2 (11727129_at) / Fold change /veh MAGEB2 (11727129_at) / RFU TMEM200A (11744735_a_at) / Fold change /veh TMEM200A (11744735_a_at) / RFU CCDC152 (11751479_a_at) / Fold change /veh CCDC152 (11751479_a_at) / RFU FAM211A (11726209_a_at) / Fold change /veh FAM211A (11726209_a_at) / RFU RGS16 (11746705_a_at) / Fold change /veh RGS16 (11746705_a_at) / RFU VCAN (11755009_s_at) / Fold change /veh VCAN (11755009_s_at) / RFU RHOB (11743442_s_at) / Fold change /veh RHOB (11743442_s_at) / RFU RGS16 (11720943_a_at) / Fold change /veh RGS16 (11720943_a_at) / RFU RGS16 (11720944_at) / Fold change /veh RGS16 (11720944_at) / RFU, VPS4B / Fold change vs veh, VPS4B / RFU, CREB1 / Fold change vs veh, CREB1 / RFU, DNAJC13 / Fold change vs veh, DNAJC13 / RFU, GNAQ / Fold change vs veh, GNAQ / RFU, CDK5R1 / Fold change vs veh, CDK5R1 / RFU, ZRANB3 / Fold change vs veh, ZRANB3 / RFU, CUL4A / Fold change vs veh, CUL4A / RFU, CCNY / Fold change vs veh, CCNY / RFU, UFL1 / Fold change vs veh, UFL1 / RFU, COG3 / Fold change vs veh, COG3 / RFU, DIAPH2 / Fold change vs veh, DIAPH2 / RFU, SKA2 / Fold change vs veh, SKA2 / RFU, AFF3 / Fold change vs veh, AFF3 / RFU, LMF1 / Fold change vs veh, LMF1 / RFU, IPO11 / Fold change vs veh, IPO11 / RFU, DFFB / Fold change vs veh, DFFB / RFU, FOXP1 / Fold change vs veh, FOXP1 / RFU, CARD8 / Fold change vs veh, CARD8 / RFU, STRN3 / Fold change vs veh, STRN3 / RFU, ADK / Fold change vs veh, ADK / RFU, RASSF2 / Fold change vs veh, RASSF2 / RFU, WIPF1 / Fold change vs veh, WIPF1 / RFU, LARP1B / Fold change vs veh, LARP1B / RFU, RASA1 / Fold change vs veh, RASA1 / RFU, RB1 / Fold change vs veh, RB1 / RFU, PPFIA1 / Fold change vs veh, PPFIA1 / RFU, MAT2A / Fold change vs veh, MAT2A / RFU, CCT5 / Fold change vs veh, CCT5 / RFU, WDR92 / Fold change vs veh, WDR92 / RFU, CUX1 / Fold change vs veh, CUX1 / RFU, TTC7A / Fold change vs veh, TTC7A / RFU, TMEM135 / Fold change vs veh, TMEM135 / RFU, DEPTOR / Fold change vs veh, DEPTOR / RFU, CPM / Fold change vs veh, CPM / RFU, DNAJB6 / Fold change vs veh, DNAJB6 / RFU, CACNA2D3 / Fold change vs veh, CACNA2D3 / RFU, DTX4 / Fold change vs veh, DTX4 / RFU, TFCP2 / Fold change vs veh, TFCP2 / RFU, GMCL1 /// GMCL1P1 / Fold change vs veh, GMCL1 /// GMCL1P1 / RFU, AEBP2 / Fold change vs veh, AEBP2 / RFU, SNHG1 /// SNORD22 /// SNORD25 /// SNORD26 /// SNORD27 /// SNORD28 /// SNORD29 /// SNORD31 / Fold change vs veh, SNHG1 /// SNORD22 /// SNORD25 /// SNORD26 /// SNORD27 /// SNORD28 /// SNORD29 /// SNORD31 / Fold change (Aza/veh), C12orf56 (ProbeSet 11735607_a_at) / Fold change (ACY-1035/veh), C12orf56 (ProbeSet 11735607_a_at) / Fold change (Aza/veh), FGFR1OP (ProbeSet 11751329_s_at) / Fold change (ACY-1035/veh), FGFR1OP (ProbeSet 11751329_s_at) / Fold change (Aza/veh), VPS36 (ProbeSet 11739960_a_at) / Fold change (ACY-1035/veh), VPS36 (ProbeSet 11739960_a_at) / RFU SYPL1 (11715823_x_at) / Fold change /veh SYPL1 (11715823_x_at) / RFU IGFBP7 (11715501_s_at) / Fold change /veh IGFBP7 (11715501_s_at) / RFU REEP3 (11722064_at) / Fold change /veh REEP3 (11722064_at) / RFU IGLL1 (11728026_x_at) / Fold change /veh IGLL1 (11728026_x_at): dose or concentration left out as unconfirmed
Details: ProbeSet 11720270_a_at; LIST B

Nc1ncn([C@@H]2O[C@H](CO)[C@@H](O)[C@H]2O)c(=O)n1 [azacitidine]
Fold change vs veh, IBTK: 0.96
